Structures are written as SMILES.

The subject of one assay is parasite. The experiment in a line: Parasite LDH growth assay (Parasite Assay), antiparasite potency. Format: cell-based. Conditions: 72 h, parasite LDH growth assay, ring stage parasites, 72 hours incubation at 37° C.; read-out: EC50. As to the method: Assessing Antiparasite Potency in a Parasite LDH Growth Assay (Parasite Assay)
The parasite stock was maintained at 4% haematocrit in RPMI-Hepes media buffered with sodium bicarbonate and supplemented with 5% heat inactivated human serum and 0.5% albumax.
On the day of assay set up, a blood smear of the parasite culture was Giemsa stained and counted. The parasitemia was adjusted to 0.7% rings and the haematocrit was diluted to 2% in RPMI-Hepes media buffered with sodium bicarbonate and supplemented with 5% heat inactivated human serum and 0.5% albumax. 30 ul of diluted parasites are then added into 10 ul of media+compound in pre-prepared Greiner TC assay plates. Parasite assay plates were placed in gassed humidified boxes in single layer and allowed to incubate at 37° C. for 72 hours. After 72 hours growth, assay plates are sealed with parafilm and frozen flat, in single file at −80° C. overnight. On the following day, assay plates are allowed to thaw at room temperature for 4 hours to which an LDH assay is performed to measure parasite growth.
Regarding `CC1(C)CC(=O)N([C@@H]2CCOc3ccc(C(=O)N[C@@H]4c5ccccc5OC(C)(C)[C@@]4(C)O)cc32)C(=N)N1` [Example 172, (4R)-N-[(3S,4R)-3-hydroxy-2,2,3-trimethyl-chroman-4-yl]-4-(2-imino-4,4-dimethyl-6-oxo-hexahydropyrimidin-1-yl)chromane-6-carboxamide], the EC50 (as a rule, the concentration that produces a half-maximal response) was 900 pM. As for `CC1(C)CC(=O)N([C@H]2c3cc(C(=O)N[C@@H]4c5ccccc5OC(C)(C)[C@H]4O)ccc3OC2(C)C)C(=N)N1` [Example 182, (3S)-N-[(3S,4R)-3-hydroxy-2,2-dimethyl-chroman-4-yl]-3-(2-imino-4,4-dimethyl-6-oxo-hexahydropyrimidin-1-yl)-2,2-dimethyl-3H-benzofuran-5-carboxamide], the EC50 is 6100 pM. For the compound `COC1COc2ccc(C(=O)N[C@@H]3c4ccccc4OC[C@@]3(C)O)cc2C1N1C(=N)NC(C)(C)CC1=O` (stereo partly drawn) [Example 186, N-[(3S,4R)-3-hydroxy-3-methyl-chroman-4-yl]-4-(2-imino-4,4-dimethyl-6-oxo-hexahydropyrimidin-1-yl)-3-methoxy-chromane-6-carboxamide], the 50% effective concentration (EC50) was 70000 pM. As for `CC1(C)CC(=O)N([C@@H]2CCOc3ccc(C(=O)N[C@@H]4c5cc(F)ccc5OC(C)(C)[C@H]4O)cc32)C(=N)N1` [Example 189, (4R)-N-[(3S,4R)-6-fluoro-3-hydroxy-2,2-dimethyl-chroman-4-yl]-4-(2-imino-4,4-dimethyl-6-oxo-hexahydropyrimidin-1-yl)chromane-6-carboxamide], the EC50 was 1000 pM.

As to `CCC1(CC)CC(=O)N([C@@H]2CCOc3ccc(C(=O)NC(c4ccccc4)c4ccccc4)cc32)C(=N)N1` [Example 194, (4R)-N-benzhydryl-4-(4,4-diethyl-2-imino-6-oxo-hexahydropyrimidin-1-yl)chromane-6-carboxamide], the half-maximal effective concentration (EC50) is 900 pM. Same read-out and setting: to `CC1(C)CC(=O)N([C@@H]2CC(F)(F)c3ccc(C(=O)N[C@@H]4c5ccccc5OC(C)(C)[C@H]4O)cc32)C(=N)N1` [Example 199, (3R)-1,1-difluoro-N-[(3S,4R)-3-hydroxy-2,2-dimethyl-chroman-4-yl]-3-(2-imino-4,4-dimethyl-6-oxo-hexahydropyrimidin-1-yl)indane-5-carboxamide] belongs 1100 pM; to `CC[C@]1(C)CC(=O)N([C@H]2c3cc(C(=O)N[C@@H]4c5ccccc5C[C@@]4(C)O)ccc3OC[C@@H]2COC)C(=N)N1` [Example 202, (3S,4R)-4-[(4R)-4-ethyl-2-imino-4-methyl-6-oxo-hexahydropyrimidin-1-yl]-N-[(1R,2R)-2-hydroxy-2-methyl-indan-1-yl]-3-(methoxymethyl)chromane-6-carboxamide], 800 pM.

`CCC1(CC)CC(=O)N([C@@H]2C[C@@H](OC)c3ccc(C(=O)N[C@@H]4c5ccccc5OC[C@@]4(C)O)cc32)C(=N)N1` [Example 203, (1R,3R)-3-(4,4-diethyl-2-imino-6-oxo-hexahydropyrimidin-1-yl)-N-[(3S,4R)-3-hydroxy-3-methyl-chroman-4-yl]-1-methoxy-indane-5-carboxamide]: the 50% effective concentration (EC50) worked out at 5900 pM. Still for that read-out and setting: to `CCC1(CC)CC(=O)N(C2c3cc(C(=O)N[C@@H]4c5ccccc5C[C@]4(C)O)ccc3OCC2OC)C(=N)N1` (stereo partly drawn) [Example 213, 4-(4,4-diethyl-2-imino-6-oxo-hexahydropyrimidin-1-yl)-N-[(1R,2S)-2-hydroxy-2-methyl-indan-1-yl]-3-methoxy-chromane-6-carboxamide] belongs 9000 pM; to `CCC1(CC)CC(=O)N([C@H]2CCS(=O)(=O)c3ccc(C(=O)N[C@@H]4c5ccccc5C[C@H]4O)cc32)C(=N)N1` [Example 223, (4S)-4-(4,4-diethyl-2-imino-6-oxo-hexahydropyrimidin-1-yl)-N-[(1R,2R)-2-hydroxyindan-1-yl]-1,1-dioxo-3,4-dihydro-2H-thiochromene-6-carboxamide], 300000 pM; to `CC[C@]1(C)CC(=O)N([C@@H]2CCOc3ccc(C(=O)N[C@@H]4c5cc(F)ccc5OC(C)(C)[C@H]4O)cc32)C(=N)N1` [Example 224, (4R)-4-[(4R)-4-ethyl-2-imino-4-methyl-6-oxo-hexahydropyrimidin-1-yl]-N-[(3S,4R)-6-fluoro-3-hydroxy-2,2-dimethyl-chroman-4-yl]chromane-6-carboxamide], 300 pM. As for `CC[C@@]1(C)CC(=O)N([C@@H]2CCOc3ccc(C(=O)N[C@@H]4c5cc(F)ccc5OC(C)(C)[C@H]4O)cc32)C(=N)N1` [Example 225, (4R)-4-[(4S)-4-ethyl-2-imino-4-methyl-6-oxo-hexahydropyrimidin-1-yl]-N-[(3S,4R)-6-fluoro-3-hydroxy-2,2-dimethyl-chroman-4-yl]chromane-6-carboxamide], the concentration for a half-maximal effect (EC50) was 800 pM.

Regarding `CCC1(CC)CC(=O)N([C@H]2c3cc(C(=O)N[C@@H]4c5ccccc5C[C@@]4(C)O)ccc3OC[C@H]2COC)C(=N)N1` [Example 235, (3R,4R)-4-(4,4-diethyl-2-imino-6-oxo-hexahydropyrimidin-1-yl)-N-[(1R,2R)-2-hydroxy-2-methyl-indan-1-yl]-3-(methoxymethyl)chromane-6-carboxamide], the EC50 was determined as 700 pM. Regarding `CCC1(CC)CC(=O)N([C@@H]2C[C@@H](OC)c3ccc(C(=O)N[C@@H]4c5ccccc5OC(C)(C)[C@H]4O)cc32)C(=N)N1` [Example 236, (1R,3R)-3-(4,4-diethyl-2-imino-6-oxo-hexahydropyrimidin-1-yl)-N-[(3S,4R)-3-hydroxy-2,2-dimethyl-chroman-4-yl]-1-methoxy-indane-5-carboxamide], the EC50 worked out at 900 pM. Regarding `CCC1(CC)CC(=O)N([C@@H]2C[C@H](OC)c3ccc(C(=O)N[C@@H]4c5ccccc5OC(C)(C)[C@H]4O)cc32)C(=N)N1` [Example 239, (1S,3R)-3-(4,4-diethyl-2-imino-6-oxo-hexahydropyrimidin-1-yl)-N-[(3S,4R)-3-hydroxy-2,2-dimethyl-chroman-4-yl]-1-methoxy-indane-5-carboxamide], the EC50 stood at 900 pM. The same measure, in the same setting: to `CCC1(CC)CC(=O)N([C@H]2c3cc(C(=O)N[C@@H]4c5ccccc5OC(C)(C)[C@H]4O)ccc3OC[C@@H]2C)C(=N)N1` [Example 240, (3R,4R)-4-(4,4-diethyl-2-imino-6-oxo-hexahydropyrimidin-1-yl)-N-[(3S,4R)-3-hydroxy-2,2-dimethyl-chroman-4-yl]-3-methyl-chromane-6-carboxamide] belongs 600 pM. Same read-out and setting: to `CCC1(CC)CC(=O)N([C@H]2c3cc(C(=O)N[C@@H]4c5ccccc5OC(C)(C)[C@H]4O)ccc3OC[C@H]2C)C(=N)N1` [Example 241, (3S,4R)-4-(4,4-diethyl-2-imino-6-oxo-hexahydropyrimidin-1-yl)-N-[(3S,4R)-3-hydroxy-2,2-dimethyl-chroman-4-yl]-3-methyl-chromane-6-carboxamide] belongs 400 pM; to `CCC1(CC)CC(=O)N([C@H]2c3cc(C(=O)N[C@@H]4c5ccccc5OC(C)(C)[C@H]4O)ccc3OC2(C)C)C(=N)N1` [Example 245, (3S)-3-(4,4-diethyl-2-imino-6-oxo-hexahydropyrimidin-1-yl)-N-[(3S,4R)-3-hydroxy-2,2-dimethyl-chroman-4-yl]-2,2-dimethyl-3H-benzofuran-5-carboxamide], 800 pM; to `CCC1(CC)CC(=O)N([C@@H]2C[C@@H](C)Oc3ccc(C(=O)N[C@@H]4c5ccccc5OC(C)(C)[C@H]4O)cc32)C(=N)N1` [Example 246, (2R,4R)-4-(4,4-diethyl-2-imino-6-oxo-hexahydropyrimidin-1-yl)-N-[(3S,4R)-3-hydroxy-2,2-dimethyl-chroman-4-yl]-2-methyl-chromane-6-carboxamide], 2000 pM.

Turning to `CCC1(CC)CC(=O)N([C@H]2c3cc(C(=O)N[C@@H]4c5ccccc5OC[C@@]4(C)O)ccc3CC[C@@H]2OC)C(=N)N1` [Example 247, (3S,4S)-4-(4,4-diethyl-2-imino-6-oxo-hexahydropyrimidin-1-yl)-N-[(3S,4R)-3-hydroxy-3-methyl-chroman-4-yl]-3-methoxy-tetralin-6-carboxamide], the EC50 was 4500 pM.

Still in this assay, the particulars now being: parasite LDH growth assay, ring stage parasites, 72 hours incubation at 37° C.; read-out: EC50.
In the case of `CCC1(CC)CC(=O)N([C@@H]2CCOc3ccc(C(=O)NC4c5ccccc5OC4(C)CO)cc32)C(=N)N1` (stereo partly drawn) [Example 176B, (4R)-4-(4,4-diethyl-2-imino-6-oxo-hexahydropyrimidin-1-yl)-N-[2-(hydroxymethyl)-2-methyl-3H-benzofuran-3-yl]chromane-6-carboxamide], the concentration for a half-maximal effect (EC50) worked out at 7800 pM. Still for that read-out and setting: to `CC[C@]1(C)CC(=O)N([C@@H]2CCOc3ccc(C(=O)NC4c5c(F)cccc5OCC4(C)O)cc32)C(=N)N1` (stereo partly drawn) [Example 193B, (4R)-4-[(4R)-4-ethyl-2-imino-4-methyl-6-oxo-hexahydropyrimidin-1-yl]-N-(5-fluoro-3-hydroxy-3-methyl-chroman-4-yl)chromane-6-carboxamide] belongs 800 pM. In the case of `CCC1(CC)CC(=O)N([C@@H]2CCOc3ccc(C(=O)NC4c5cc(F)ccc5OCC4(C)O)cc32)C(=N)N1` (stereo partly drawn) [Example 226D, (4R)-4-(4,4-diethyl-2-imino-6-oxo-hexahydropyrimidin-1-yl)-N-(6-fluoro-3-hydroxy-3-methyl-chroman-4-yl)chromane-6-carboxamide], the EC50 came out at 1000 pM. The same measure, in the same setting: to `CCC1(CC)CC(=O)N([C@@H]2CCOc3ccc(C(=O)NC4c5ccccc5OC(C)(C)C4(C)O)cc32)C(=N)N1` (stereo partly drawn) [Example 242A, (4R)-4-(4,4-diethyl-2-imino-6-oxo-hexahydropyrimidin-1-yl)-N-(3-hydroxy-2,2,3-trimethyl-chroman-4-yl)chromane-6-carboxamide] belongs 600 pM.

Source of the values: patent US20230355622A1, “METHODS OF CHEMOVACCINATION AGAINST PLASMODIUM INFECTIONS” (Merck Sharp & Dohme LLC, priority 2020, published 2023).
